Where “and” joins values, the source holds several entries; their conditions need not be identical. Identical values can stand only once. Like-named read-outs stand apart in the source and are kept apart here.
Tests used:
EeAChE = biological target: T1, EeAChE (Electrophorus electricus, UniProt O42275); assay: biochemical; assay type: biochemical; conditions: for inhibition at 10 µM: 10 μM compound; for inhibition at 10 µM / IC50: Ellman method; for IC50: mean ± SEM; for fold less active than tacrine (EeAChE IC50): relative to tacrine IC50 = 0.03 μM
T1 construct: purchased Sigma Aldrich
Experimental: The effect of the test compounds on the activity of both EeAChE and eqBuChE was evaluated following the spectrophotometric method of Ellman. The reaction occurred in a final volume of 3 mL of a 0.1 M phosphate-buffered solution at pH = 8.0, containing 5,5′-dithiobis-2-nitrobenzoic acid (DTNB, 2625 µL, 0.35 mM, final concentration), EeAChE (29 µL, 0.035 U/mL, final concentration) or eqBuChE (60 µL, 0.05 U/mL, final concentration), tested compound (3 µL, […]), and 1% w/v bovine albumin serum phosphate-buffered (pH = 8) solution (BSA, 60 µL). After this pre-incubation period, acetylthiocholine iodide (105 µL, 0.35 mM, final concentration) or butyrylthiocholine iodide (150 µL, 0.5 mM, final concentration) was added, allowing 15 min of additional incubation time.

[1] = ORAC-FL; for ORAC (TE): fluorescein probe, Trolox standard, mean (n = 3) ± SEM; for antioxidant activity (ORAC) in words: qualitative statement or comparison with positive controls
Experimental: The ability of triazolopyridopyrimidines 3a–k to reduce the amount of peroxyl radicals was determined by the oxygen radical absorbance capacity by fluorescence (ORAC-FL) method [26, 27] using fluorescein (FL) as the fluorescent probe, and 6-hydroxy-2,5,7,8-tetramethyl-chroman-2-carboxylic acid (Trolox) as standard compound. Results were expressed as μmol Trolox equivalents (TE).
Briefly, fluorescein and antioxidant were incubated in a black 96-well microplate (Nunc) for 15 min at 37 °C. 2,2′-Azobis(amidinopropane) dihydrochloride was then added quickly using the built-in injector of Varioskan Flash plate reader (Thermo Scientific). The fluorescence was measured at 485 nm (excitation wavelength) and 535 nm (emission wavelength) each min for 1 h. All the reactions were made in triplicate and at least three different assays were performed for each sample.

T1 sequence (O42275 24-633): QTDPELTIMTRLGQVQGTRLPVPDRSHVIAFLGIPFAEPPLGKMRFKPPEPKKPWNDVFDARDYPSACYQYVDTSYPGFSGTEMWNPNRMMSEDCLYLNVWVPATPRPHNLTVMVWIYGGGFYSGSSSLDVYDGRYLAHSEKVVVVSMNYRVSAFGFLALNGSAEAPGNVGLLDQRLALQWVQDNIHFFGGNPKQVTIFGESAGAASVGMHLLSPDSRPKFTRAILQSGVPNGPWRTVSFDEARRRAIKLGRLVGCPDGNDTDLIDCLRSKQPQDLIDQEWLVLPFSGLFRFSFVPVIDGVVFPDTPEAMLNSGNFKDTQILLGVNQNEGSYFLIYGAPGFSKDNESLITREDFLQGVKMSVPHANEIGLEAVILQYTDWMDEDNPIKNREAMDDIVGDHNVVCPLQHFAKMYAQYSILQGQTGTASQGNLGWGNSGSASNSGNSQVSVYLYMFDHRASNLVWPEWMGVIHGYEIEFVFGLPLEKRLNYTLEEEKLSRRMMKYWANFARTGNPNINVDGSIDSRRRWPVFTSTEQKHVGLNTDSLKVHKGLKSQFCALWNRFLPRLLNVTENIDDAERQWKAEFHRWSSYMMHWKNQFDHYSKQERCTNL

SMILES | inhibition at 10 µM (EeAChE) | ORAC (TE) [1] | IC50 (EeAChE) | fold less active than tacrine (EeAChE IC50) (EeAChE) | antioxidant activity (ORAC) in words [1] | ORAC (TE) ([1]; listed as ferulic acid)
N#Cc1c(-c2ccccc2)c2c(N)ncnc2n2nc(-c3ccccc3)nc12 [Compound 3a, 6-Amino-2,5-diphenyl-[1,2,4]triazolo[1′,5′:1,6]pyrido[2,3-d] pyrimidine-4-carbonitrile] | 40.3 ± 2.4% | 1.85 ± 0.1 TE |  |  |  | 
Cc1ccc(-c2c(C#N)c3nc(-c4ccccc4)nn3c3ncnc(N)c23)cc1 [Compound 3b, 6-Amino-2-phenyl-5-(p-tolyl)-[1,2,4]triazolo[1′,5′:1,6]pyrido[2,3-d] pyrimidine-4-carbonitrile] | 73.13 ± 0.1% | 1.77 TE and 1.77 ± 0.1 TE | 1.17 µM | 39 fold |  | 
COc1ccc(-c2c(C#N)c3nc(-c4ccccc4)nn3c3ncnc(N)c23)cc1 [Compound 3c, 6-Amino-5-(4-methoxyphenyl)-2-phenyl-[1,2,4]triazolo[1′,5′:1,6]pyrido[2,3-d] pyrimidine-4-carbonitrile] | 63.9 ± 1.8% | 4.01 TE and 4.01 ± 0.1 TE | 1.3 µM and 1.32 µM | 44 fold |  | 
COc1cccc(-c2c(C#N)c3nc(-c4ccccc4)nn3c3ncnc(N)c23)c1 [Compound 3d, 6-Amino-5-(3-methoxyphenyl)-2-phenyl-[1,2,4]triazolo[1′,5′:1,6]pyrido[2,3-d] pyrimidine-4-carbonitrile] | 31.2 ± 2.1% | 4.33 ± 0.1 TE |  |  |  | 
COc1ccccc1-c1c(C#N)c2nc(-c3ccccc3)nn2c2ncnc(N)c12 [Compound 3e, 6-Amino-5-(2-methoxyphenyl)-2-phenyl-[1,2,4]triazolo[1′,5′:1,6]pyrido[2,3-d] pyrimidine-4-carbonitrile] | 32.3 ± 2.4% | 3.79 ± 0.1 TE |  |  |  | 
N#Cc1c(-c2ccc(Cl)cc2)c2c(N)ncnc2n2nc(-c3ccccc3)nc12 [Compound 3f, 6-Amino-5-(4-chlorophenyl)-2-phenyl-[1,2,4]triazolo[1′,5′:1,6]pyrido[2,3-d] pyrimidine-4-carbonitrile] | 43.9 ± 1.2% | 1.81 ± 0.1 TE |  |  |  | 
N#Cc1c(-c2ccc(O)cc2)c2c(N)ncnc2n2nc(-c3ccccc3)nc12 [Compound 3g, 6-Amino-5-(4-hydroxyphenyl)-2-phenyl-[1,2,4]triazolo[1′,5′:1,6]pyrido[2,3-d] pyrimidine-4-carbonitrile] | 36.4 ± 0.6% | 7.17 TE and 7.17 ± 0.2 TE |  |  | most potent antioxidant | 
N#Cc1c(-c2ccc([N+](=O)[O-])cc2)c2c(N)ncnc2n2nc(-c3ccccc3)nc12 [Compound 3h, 6-Amino-5-(4-nitrophenyl)-2-phenyl-[1,2,4]triazolo[1′,5′:1,6]pyrido[2,3-d] pyrimidine-4-carbonitrile] | 44.6 ± 1.6% | 3.54 ± 0.1 TE |  |  | moderate antioxidants | 
CC(C)c1ccc(-c2c(C#N)c3nc(-c4ccccc4)nn3c3ncnc(N)c23)cc1 [Compound 3i, 6-Amino-5-(4-isopropylphenyl)-2-phenyl-[1,2,4]triazolo[1′,5′:1,6]pyrido[2,3-d] pyrimidine-4-carbonitrile] | 18.2 ± 1% | 1.89 ± 0.1 TE |  |  |  | 
N#Cc1c(-c2ccc(Br)cc2)c2c(N)ncnc2n2nc(-c3ccccc3)nc12 [Compound 3j, 6-Amino-5-(4-bromophenyl)-2-phenyl-[1,2,4]triazolo[1′,5′:1,6]pyrido[2,3-d] pyrimidine-4-carbonitrile] | 38.1 ± 1.1% | 2.57 ± 0.0 TE |  |  |  | 
N#Cc1c(-c2ccc(Oc3ccccc3)cc2)c2c(N)ncnc2n2nc(-c3ccccc3)nc12 [Compound 3k, 6-Amino-5-(4-phenoxyphenyl)-2-phenyl-[1,2,4]triazolo[1′,5′:1,6]pyrido[2,3-d] pyrimidine-4-carbonitrile] | 18.6 ± 1.8% | 2.99 ± 0.2 TE |  |  | weaker antioxidant activity | 
COc1cc(/C=C/C(=O)O)ccc1O [Ferulic acid, reference compound] |  | 3.74 ± 0.2 TE |  |  |  | 3.7 TE
